Measured values as given in PubChem BioAssay (NCI).
Several values for one entry are separate records, joined by “and”; a condition that tells them apart may be missing. Equal entries are not always repeated.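 Values below derive from 48-hour exposures of cells grown in 96-well plates, with endpoints linearly interpolated between the two concentrations bracketing the appropriate inhibition level. At the GI50, growth is halved. At the TGI there is no net growth.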

What was measured:
Assay in all cases: NCI-60 cell line screen, 48 h
UACC-257 melanoma = tested on: UACC-257 melanoma
NCI-H522 lung = tested on: NCI-H522 lung
NCI-H23 lung = tested on: NCI-H23 lung
LOX IMVI melanoma = tested on: LOX IMVI melanoma
NCI/ADR-RES ovarian = tested on: NCI/ADR-RES ovarian
COLO 205 colon = tested on: COLO 205 colon
MDA-MB-231 breast = tested on: MDA-MB-231 breast
OVCAR-4 ovarian = tested on: OVCAR-4 ovarian

SMILES	GI50 (UACC-257 melanoma)	TGI (UACC-257 melanoma)	GI50 (NCI-H522 lung)	TGI (NCI-H522 lung)	GI50 (NCI-H23 lung)	TGI (NCI-H23 lung)	GI50 (LOX IMVI melanoma)	TGI (LOX IMVI melanoma)	GI50 (NCI/ADR-RES ovarian)	TGI (NCI/ADR-RES ovarian)	GI50 (COLO 205 colon)	TGI (COLO 205 colon)	GI50 (MDA-MB-231 breast)	TGI (MDA-MB-231 breast)	GI50 (OVCAR-4 ovarian)	TGI (OVCAR-4 ovarian) [µM]
CCC#CC[C@H](O)C/C=C1/C(=O)C=C[C@@H]1C/C=C\CCCC(=O)OC	0.856 µM	2.43 µM	0.673 µM	1.68 µM	1.02 µM	2.78 µM	0.754 µM	1.54 µM	1.16 µM	3.4 µM	1.14 µM	2.86 µM	1.95 µM	7.78 µM	2.25 µM	8.64
O=C1Nc2ccccc2/C1=C\c1cccc(/C=C2/C(=O)Nc3ccccc32)n1	0.241 µM	0.633 µM	0.208 µM	0.705 µM	0.855 µM	2.43 µM	0.19 µM	0.44 µM	0.689 µM	6.47 µM	0.356 µM	1.57 µM	1.25 µM	2.77 µM	0.718 µM	1.99
COc1ccc(OC)c(NC(=O)c2cccc(NC3=C(Cl)C(=O)N(Cc4ccccc4)C3=O)c2)c1	23.5 µM	> 100 µM	> 100 µM	> 100 µM	> 70.8 µM	> 100 µM	> 100 µM	> 100 µM	> 67.8 µM	> 100 µM	> 100 µM	> 100 µM	> 35.7 µM	> 54.1 µM	> 100 µM	> 100
COc1ccc(C(C#N)=C2C=CC(=NO)C=C2)cc1	10.5 µM	30.6 µM	1.23 µM	3.41 µM	12.8 µM	26.3 µM	1.91 µM	4.5 µM	3.38 µM	13.3 µM	15.3 µM	30 µM	12.6 µM	35.3 µM	5.85 µM	19.6
CCCCCCCN(CCCCCCC)C(=N)c1ccnc2ccccc12	1.72 µM	3.5 µM	1.65 µM	3.41 µM	1.54 µM	3.08 µM	1.42 µM	2.82 µM	1.54 µM	2.96 µM	1.58 µM	3.51 µM	1.62 µM	3.58 µM	1.35 µM	3.05
CN(C)C[C@H]1CCn2c(c(C3=C(c4cn(C)c5ccccc45)C(=O)NC3=O)c3ccccc32)C1	4.45 µM	8.45 µM	4.86 µM	9.17 µM	6.58 µM	15 µM	4.58 µM	8.56 µM	5.67 µM	14.2 µM	3.71 µM	7.5 µM	3.96 µM	10.3 µM	3.97 µM	12.5
CC(CN(C)C)S(=O)(=O)c1ccc(-c2cnc(N)c(C(=O)Nc3ccccc3)n2)cc1 (configuration not stated)	2.04 µM	5.06 µM	17.5 µM	35.9 µM	3.05 µM	24.7 µM	2.82 µM	16.7 µM	5.2 µM	> 100 µM	2.74 µM	8.56 µM	10.6 µM	27.6 µM	6.95 µM	54.2
CC(=O)O[C@@]12CO[C@@H]1C[C@H](O)[C@@]1(C)C(=O)[C@H](O)C3=C(C)[C@@H](OC(=O)[C@H](O)[C@@H](NC(=O)OC(C)(C)C)c4ccccc4)C[C@@](O)([C@@H](OC(=O)c4ccccc4)C12)C3(C)C (some centres not stated)	32.3 µM	> 100 µM	–	52.3 µM	< 0.005 µM	50 µM	–	79 µM	0.35 µM and 2.05 µM	2.77 µM and 15.4 µM	–	0.0251 µM	0.00751 µM and 0.0717 µM	28 µM and > 100 µM	12.6 µM	> 100
Cc1ccc2[nH]c3c(c2c1)N=c1ccccc1=NO3	70.6 µM	> 100 µM	26 µM	> 100 µM	75.9 µM	> 100 µM	97.8 µM	> 100 µM	22.7 µM	71.2 µM	31.9 µM	> 100 µM	35.9 µM	> 100 µM	27.9 µM	> 100
CN(C)c1ccc(C(=N)c2ccc(N(C)C)cc2)cc1	6.56 µM and 4.76 µM	30.8 µM and 32.6 µM	0.503 µM and 1.16 µM	5.01 µM and 9.45 µM	4.47 µM and 2.16 µM	34.6 µM and 6.59 µM	5.37 µM and 4.92 µM	33 µM and 30.2 µM	1.68 µM and 1.52 µM	7.42 µM and 5.04 µM	2.49 µM and 2.16 µM	10.7 µM and 8.83 µM	5.77 µM and 7.67 µM	47.5 µM and 30.9 µM	5.86 µM and 3.71 µM	> 100
